# Experiments:
# [1] = target: T1, B2 bradykinin receptor (Homo sapiens, UniProt P30411)
# T1 sequence (P30411 whole entry): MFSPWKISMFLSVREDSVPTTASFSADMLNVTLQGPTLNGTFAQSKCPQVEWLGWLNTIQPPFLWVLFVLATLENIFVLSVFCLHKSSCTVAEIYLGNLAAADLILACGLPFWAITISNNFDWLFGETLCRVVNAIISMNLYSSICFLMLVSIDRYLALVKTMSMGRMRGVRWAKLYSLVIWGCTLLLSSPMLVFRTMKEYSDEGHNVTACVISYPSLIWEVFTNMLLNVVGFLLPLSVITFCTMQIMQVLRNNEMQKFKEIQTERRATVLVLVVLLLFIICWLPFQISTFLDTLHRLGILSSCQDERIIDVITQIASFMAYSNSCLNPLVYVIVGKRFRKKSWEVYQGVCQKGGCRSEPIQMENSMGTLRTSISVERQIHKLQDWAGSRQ
# [2] = target: D(3) dopamine receptor (Homo sapiens, UniProt P35462)
# [3] = target: Prothrombin (Homo sapiens, UniProt P00734); type: functional
# [4] = target: Mu-type opioid receptor (Homo sapiens, UniProt P35372)
# [5] = target: cGMP-inhibited 3',5'-cyclic phosphodiesterase 3A (Homo sapiens, UniProt Q14432); type: functional
# [6] = target: 3',5'-cyclic-AMP phosphodiesterase 4A (Homo sapiens, UniProt P27815); type: functional
# [7] = target: T2, Progesterone receptor (Homo sapiens, UniProt P06401); type: functional
# T2 sequence (P06401 whole entry): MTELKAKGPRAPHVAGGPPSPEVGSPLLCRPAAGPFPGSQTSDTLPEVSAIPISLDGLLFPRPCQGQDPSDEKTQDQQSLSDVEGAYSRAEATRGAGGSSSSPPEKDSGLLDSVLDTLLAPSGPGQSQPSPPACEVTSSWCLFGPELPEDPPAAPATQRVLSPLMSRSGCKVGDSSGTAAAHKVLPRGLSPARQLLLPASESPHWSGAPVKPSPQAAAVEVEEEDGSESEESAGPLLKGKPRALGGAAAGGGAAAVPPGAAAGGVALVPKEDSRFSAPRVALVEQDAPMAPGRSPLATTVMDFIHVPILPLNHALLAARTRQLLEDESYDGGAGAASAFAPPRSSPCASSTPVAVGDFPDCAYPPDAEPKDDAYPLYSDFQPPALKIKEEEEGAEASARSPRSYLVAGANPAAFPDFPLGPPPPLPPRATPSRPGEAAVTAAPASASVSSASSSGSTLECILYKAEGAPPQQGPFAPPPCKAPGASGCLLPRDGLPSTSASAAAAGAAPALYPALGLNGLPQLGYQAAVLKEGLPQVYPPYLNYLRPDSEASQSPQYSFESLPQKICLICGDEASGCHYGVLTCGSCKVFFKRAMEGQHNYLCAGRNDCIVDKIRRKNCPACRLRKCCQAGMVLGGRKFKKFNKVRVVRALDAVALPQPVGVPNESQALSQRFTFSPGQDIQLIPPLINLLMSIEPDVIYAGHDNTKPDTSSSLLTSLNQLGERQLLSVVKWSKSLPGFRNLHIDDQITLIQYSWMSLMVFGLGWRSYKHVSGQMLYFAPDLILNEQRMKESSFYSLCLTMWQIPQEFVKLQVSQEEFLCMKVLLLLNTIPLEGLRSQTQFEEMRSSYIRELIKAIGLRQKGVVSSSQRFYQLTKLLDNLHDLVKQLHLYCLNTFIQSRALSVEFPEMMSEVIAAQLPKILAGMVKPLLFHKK
# [8] = target: Sodium-dependent noradrenaline transporter (Homo sapiens, UniProt P23975)
# [9] = target: Voltage-dependent L-type calcium channel subunit alpha-1C (Rattus norvegicus, UniProt P22002); type: functional
# [10] = target: Cannabinoid receptor 1 (Homo sapiens, UniProt P21554)
# [11] = target: T3, Adenosine receptor A3 (Homo sapiens, UniProt P0DMS8)
# T3 sequence (P0DMS8 whole entry): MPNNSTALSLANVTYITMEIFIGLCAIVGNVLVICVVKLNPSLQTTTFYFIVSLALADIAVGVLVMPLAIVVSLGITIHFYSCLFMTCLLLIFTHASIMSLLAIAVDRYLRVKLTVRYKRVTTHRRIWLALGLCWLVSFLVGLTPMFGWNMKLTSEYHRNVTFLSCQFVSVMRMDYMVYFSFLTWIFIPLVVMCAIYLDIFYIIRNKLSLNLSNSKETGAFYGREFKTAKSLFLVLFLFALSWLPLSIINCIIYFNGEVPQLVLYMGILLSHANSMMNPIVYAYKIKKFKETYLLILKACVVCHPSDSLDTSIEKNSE
# Further: assay procedure not described here.
# Chain of D(3) dopamine receptor (P35462 whole entry): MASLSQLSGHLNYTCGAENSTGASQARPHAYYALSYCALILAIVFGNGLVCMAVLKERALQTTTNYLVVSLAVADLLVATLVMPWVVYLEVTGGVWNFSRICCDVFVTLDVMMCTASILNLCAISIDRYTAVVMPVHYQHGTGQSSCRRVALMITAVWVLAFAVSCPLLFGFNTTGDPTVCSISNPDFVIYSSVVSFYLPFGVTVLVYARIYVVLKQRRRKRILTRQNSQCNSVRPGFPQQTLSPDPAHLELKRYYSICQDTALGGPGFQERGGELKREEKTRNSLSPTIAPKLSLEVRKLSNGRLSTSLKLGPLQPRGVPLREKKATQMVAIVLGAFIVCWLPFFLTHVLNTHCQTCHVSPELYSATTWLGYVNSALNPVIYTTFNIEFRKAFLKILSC
# Chain of Mu-type opioid receptor (P35372 whole entry): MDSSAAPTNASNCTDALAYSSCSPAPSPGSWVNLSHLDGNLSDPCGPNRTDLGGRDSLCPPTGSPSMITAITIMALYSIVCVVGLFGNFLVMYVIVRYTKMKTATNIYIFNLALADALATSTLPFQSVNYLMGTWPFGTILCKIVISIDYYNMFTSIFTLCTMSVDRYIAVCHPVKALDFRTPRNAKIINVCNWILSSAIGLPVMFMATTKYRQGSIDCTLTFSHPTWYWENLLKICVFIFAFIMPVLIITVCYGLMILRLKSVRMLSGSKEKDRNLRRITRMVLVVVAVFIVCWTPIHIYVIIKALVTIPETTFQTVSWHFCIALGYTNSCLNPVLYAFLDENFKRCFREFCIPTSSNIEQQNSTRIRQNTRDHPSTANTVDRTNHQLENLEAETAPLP
# Chain of 3',5'-cyclic-AMP phosphodiesterase 4A (P27815 whole entry): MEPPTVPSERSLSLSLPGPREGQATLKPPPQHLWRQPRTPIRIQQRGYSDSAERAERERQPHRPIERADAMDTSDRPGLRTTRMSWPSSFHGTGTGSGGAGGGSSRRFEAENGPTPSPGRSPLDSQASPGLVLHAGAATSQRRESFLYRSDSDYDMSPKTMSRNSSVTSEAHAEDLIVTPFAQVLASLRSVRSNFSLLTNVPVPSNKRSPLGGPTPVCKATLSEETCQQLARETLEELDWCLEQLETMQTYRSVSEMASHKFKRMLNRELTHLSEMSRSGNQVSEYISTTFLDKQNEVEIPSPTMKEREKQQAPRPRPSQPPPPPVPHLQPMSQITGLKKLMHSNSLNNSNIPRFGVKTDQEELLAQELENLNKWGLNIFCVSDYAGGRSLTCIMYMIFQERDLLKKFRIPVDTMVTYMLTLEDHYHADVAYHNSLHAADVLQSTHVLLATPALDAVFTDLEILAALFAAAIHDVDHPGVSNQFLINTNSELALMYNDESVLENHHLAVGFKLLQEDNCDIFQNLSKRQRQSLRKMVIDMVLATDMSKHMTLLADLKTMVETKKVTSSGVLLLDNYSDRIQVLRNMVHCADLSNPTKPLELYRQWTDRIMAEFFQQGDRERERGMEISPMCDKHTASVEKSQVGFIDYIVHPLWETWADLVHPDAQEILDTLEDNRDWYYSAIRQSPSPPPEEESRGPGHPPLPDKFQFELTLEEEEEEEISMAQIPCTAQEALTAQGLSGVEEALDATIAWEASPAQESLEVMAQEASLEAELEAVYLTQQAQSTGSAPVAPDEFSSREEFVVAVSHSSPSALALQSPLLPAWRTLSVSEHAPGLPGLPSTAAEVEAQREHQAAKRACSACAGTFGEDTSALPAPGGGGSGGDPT
# Chain of cGMP-inhibited 3',5'-cyclic phosphodiesterase 3A (Q14432 whole entry): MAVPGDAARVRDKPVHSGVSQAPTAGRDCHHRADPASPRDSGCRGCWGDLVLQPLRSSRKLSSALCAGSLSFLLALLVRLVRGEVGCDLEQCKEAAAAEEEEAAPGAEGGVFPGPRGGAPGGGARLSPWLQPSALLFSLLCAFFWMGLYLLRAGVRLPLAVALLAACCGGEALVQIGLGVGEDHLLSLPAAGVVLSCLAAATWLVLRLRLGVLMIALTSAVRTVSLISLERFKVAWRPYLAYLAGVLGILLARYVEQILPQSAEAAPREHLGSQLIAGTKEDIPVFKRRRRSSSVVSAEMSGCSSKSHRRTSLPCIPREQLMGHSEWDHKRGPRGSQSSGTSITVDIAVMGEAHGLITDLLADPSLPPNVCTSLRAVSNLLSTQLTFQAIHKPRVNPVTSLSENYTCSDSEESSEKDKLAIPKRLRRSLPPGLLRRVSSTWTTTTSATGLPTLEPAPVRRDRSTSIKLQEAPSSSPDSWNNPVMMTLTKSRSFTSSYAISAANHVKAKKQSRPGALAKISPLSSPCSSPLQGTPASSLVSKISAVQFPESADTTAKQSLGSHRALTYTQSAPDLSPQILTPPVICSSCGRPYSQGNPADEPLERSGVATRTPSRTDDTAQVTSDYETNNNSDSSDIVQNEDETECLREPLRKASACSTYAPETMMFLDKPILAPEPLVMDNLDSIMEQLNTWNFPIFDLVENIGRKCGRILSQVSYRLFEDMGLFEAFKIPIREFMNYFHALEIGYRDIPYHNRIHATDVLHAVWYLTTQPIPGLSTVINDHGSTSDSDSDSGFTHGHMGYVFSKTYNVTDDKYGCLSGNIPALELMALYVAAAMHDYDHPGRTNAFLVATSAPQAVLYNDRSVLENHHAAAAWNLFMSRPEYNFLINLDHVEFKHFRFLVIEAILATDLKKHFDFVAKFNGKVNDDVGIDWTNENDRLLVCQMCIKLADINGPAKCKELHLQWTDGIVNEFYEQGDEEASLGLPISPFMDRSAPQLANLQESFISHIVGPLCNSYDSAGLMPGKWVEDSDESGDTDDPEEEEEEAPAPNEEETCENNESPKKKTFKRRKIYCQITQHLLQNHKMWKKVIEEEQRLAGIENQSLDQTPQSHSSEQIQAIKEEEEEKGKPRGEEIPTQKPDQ
# Chain of Cannabinoid receptor 1 (P21554 whole entry): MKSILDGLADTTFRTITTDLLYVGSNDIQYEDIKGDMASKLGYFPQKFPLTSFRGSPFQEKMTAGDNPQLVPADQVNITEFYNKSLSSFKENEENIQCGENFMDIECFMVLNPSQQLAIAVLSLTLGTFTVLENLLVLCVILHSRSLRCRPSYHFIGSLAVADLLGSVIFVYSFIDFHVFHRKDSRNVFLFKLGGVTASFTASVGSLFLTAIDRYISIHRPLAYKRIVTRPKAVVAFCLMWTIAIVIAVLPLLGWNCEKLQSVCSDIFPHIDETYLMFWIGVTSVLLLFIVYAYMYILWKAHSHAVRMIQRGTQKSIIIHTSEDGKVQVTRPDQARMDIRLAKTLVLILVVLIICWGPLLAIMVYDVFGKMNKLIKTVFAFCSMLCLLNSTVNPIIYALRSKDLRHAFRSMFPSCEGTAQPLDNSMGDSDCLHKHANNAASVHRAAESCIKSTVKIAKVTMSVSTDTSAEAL
# Chain of Sodium-dependent noradrenaline transporter (P23975 whole entry): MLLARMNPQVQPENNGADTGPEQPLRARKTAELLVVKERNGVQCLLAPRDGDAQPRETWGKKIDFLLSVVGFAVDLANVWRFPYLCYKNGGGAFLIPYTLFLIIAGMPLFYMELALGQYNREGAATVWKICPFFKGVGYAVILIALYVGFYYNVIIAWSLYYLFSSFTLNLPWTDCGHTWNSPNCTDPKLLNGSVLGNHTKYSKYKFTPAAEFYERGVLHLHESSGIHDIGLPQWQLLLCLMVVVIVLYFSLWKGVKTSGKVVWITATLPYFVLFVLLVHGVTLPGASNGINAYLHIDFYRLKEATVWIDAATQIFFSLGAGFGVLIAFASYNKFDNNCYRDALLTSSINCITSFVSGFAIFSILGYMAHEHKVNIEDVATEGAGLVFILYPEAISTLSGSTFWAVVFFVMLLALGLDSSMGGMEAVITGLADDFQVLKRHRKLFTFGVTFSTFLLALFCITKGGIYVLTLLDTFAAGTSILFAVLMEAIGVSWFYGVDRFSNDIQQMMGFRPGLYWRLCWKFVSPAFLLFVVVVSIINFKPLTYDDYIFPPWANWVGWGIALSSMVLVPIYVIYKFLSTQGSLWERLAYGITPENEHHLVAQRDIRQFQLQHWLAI
smiles,measurement,setting,value
O=c1[nH]cc(F)c(=O)[nH]1 [FLUOROURACIL],AC50,[1],> 30 µM
same,AC50,[2],> 30 µM
same,AC50,[3],> 30 µM
same,AC50,[4],> 30 µM
same,AC50,[5],> 30 µM
same,AC50,[6],> 30 µM
same,AC50,[7],> 30 µM
same,AC50,[8],> 30 µM
CCN(CCO)CCCC(C)Nc1ccnc2cc(Cl)ccc12 (stereo unspecified) [HYDROXYCHLOROQUINE],AC50,[1],> 10 µM
same,AC50,[9],> 10 µM
same,AC50,[10],> 10 µM
same,AC50,[7],> 10 µM
CN1CC2c3ccccc3Oc3ccc(Cl)cc3C2C1 (stereo unspecified) [ASENAPINE],AC50,[7],> 30 µM
CNC1(c2ccccc2Cl)CCCCC1=O (stereo unspecified) [KETAMINE],AC50,[11],> 30 µM
same,AC50,[2],> 30 µM
same,AC50,[3],> 30 µM
same,AC50,[4],7.63 µM
same,AC50,[5],> 30 µM
same,AC50,[6],> 30 µM
same,AC50,[8],> 30 µM
CCN(CC)CCn1c(=O)c(Cc2ccc(OC)cc2)nc2ccccc21 [CAROVERINE],AC50,[1],> 30 µM
same,AC50,[9],> 30 µM
same,AC50,[10],> 30 µM
same,AC50,[7],> 30 µM
CS(=O)(=O)Nc1ccc([N+](=O)[O-])cc1Oc1ccccc1 [NIMESULIDE],AC50,[1],20 µM
same,AC50,[2],> 30 µM
same,AC50,[3],> 30 µM
same,AC50,[4],> 30 µM
same,AC50,[5],> 30 µM
same,AC50,[6],> 10 µM
same,AC50,[7],> 30 µM
same,AC50,[8],> 30 µM
N[C@@H](Cc1cc(I)c(Oc2cc(I)c(O)c(I)c2)c(I)c1)C(=O)O [LEVOTHYROXINE],AC50,[1],> 10 µM
same,AC50,[7],> 30 µM
NCCCNCCSP(=O)(O)O [AMIFOSTINE],AC50,[1],> 30 µM
CCOCC(O)COc1ccc(NC(=O)CC[S+](C)C)cc1 (stereo unspecified),AC50,[7],> 30 µM
O=P1(N(CCCl)CCCl)NCCCO1 (stereo unspecified) [CYCLOPHOSPHAMIDE ANHYDROUS],AC50,[11],> 30 µM
same,AC50,[2],> 30 µM
same,AC50,[3],> 30 µM
same,AC50,[4],> 30 µM
same,AC50,[5],> 30 µM
same,AC50,[6],> 30 µM
same,AC50,[8],> 30 µM
O=NN(CCCl)C(=O)NC1CCCCC1 [LOMUSTINE],AC50,[11],> 30 µM
same,AC50,[2],> 30 µM
same,AC50,[3],> 30 µM
same,AC50,[4],> 30 µM
same,AC50,[5],> 30 µM
same,AC50,[6],25.7 µM
same,AC50,[8],> 30 µM
CN(C)CCc1c[nH]c2ccc(CS(=O)(=O)N3CCCC3)cc12 [ALMOTRIPTAN],AC50,[1],> 30 µM
same,AC50,[7],> 30 µM
NCCCCCC(=O)O [AMINOCAPROIC ACID],AC50,[1],> 10 µM
same,AC50,[9],> 10 µM
same,AC50,[10],> 10 µM
same,AC50,[7],> 10 µM
C=CC1=C(C(=O)O)N2C(=O)[C@@H](NC(=O)/C(=N\O)c3csc(N)n3)[C@H]2SC1,AC50,[1],> 30 µM
same,AC50,[9],> 10 µM
same,AC50,[10],15.8 µM
O=C(O)[C@H]1/C(=C/CO)O[C@@H]2CC(=O)N21 [CLAVULANIC ACID],AC50,[7],> 30 µM
CC[N+](CC)(CCNC(=O)C(=O)NCC[N+](CC)(CC)Cc1ccccc1Cl)Cc1ccccc1Cl [AMBENONIUM],AC50,[1],> 30 µM
same,AC50,[9],> 30 µM
same,AC50,[7],> 30 µM
CCC[C@@]1(CCc2ccccc2)CC(O)=C([C@H](CC)c2cccc(NS(=O)(=O)c3ccc(C(F)(F)F)cn3)c2)C(=O)O1,AC50,[7],> 30 µM
CC(C)(CO)c1cc2cc(NC(=O)C3(c4ccc5c(c4)OC(F)(F)O5)CC3)c(F)cc2n1C[C@@H](O)CO [TEZACAFTOR],AC50,[7],> 30 µM
CC(=O)NC[C@H]1CN(c2ccc(N3CCOCC3)c(F)c2)C(=O)O1 [LINEZOLID],AC50,[1],> 30 µM
same,AC50,[7],> 30 µM
O=C1[C@@H]2[C@H]3CC[C@H](C3)[C@@H]2C(=O)N1C[C@@H]1CCCC[C@H]1CN1CCN(c2nsc3ccccc23)CC1 [LURASIDONE],AC50,[11],6.36 µM
same,AC50,[2],0.0042 µM
same,AC50,[3],> 30 µM
same,AC50,[4],> 10 µM
same,AC50,[5],> 30 µM
same,AC50,[6],22.5 µM
same,AC50,[7],> 30 µM
same,AC50,[8],24.1 µM
C[C@]12CCC(=O)C=C1CC[C@H]1[C@@H]3CC[C@](O)(C(=O)CO)[C@@]3(C)C[C@H](O)[C@@]12F [FLUDROCORTISONE],AC50,[1],> 30 µM
same,AC50,[9],> 10 µM
same,AC50,[10],> 10 µM
CN(C)CCOC(c1ccc(Cl)cc1)c1ccccn1 (stereo unspecified) [CARBINOXAMINE],AC50,[1],> 30 µM
same,AC50,[7],> 30 µM
C[C@H](CS)C(=O)N1CCC[C@H]1C(=O)O [CAPTOPRIL],AC50,[1],> 30 µM
same,AC50,[9],> 10 µM
same,AC50,[10],> 10 µM
CCC1(c2ccccc2)C(=O)NCNC1=O [PRIMIDONE],AC50,[1],> 10 µM
same,AC50,[9],> 10 µM
same,AC50,[10],> 10 µM
same,AC50,[7],> 10 µM
O=C(O)[C@@H](S)[C@@H](S)C(=O)O,AC50,[2],> 30 µM
same,AC50,[3],2.64 µM
same,AC50,[4],> 30 µM
same,AC50,[5],> 30 µM
same,AC50,[6],> 30 µM
same,AC50,[8],> 30 µM
C[C@H](Nc1ncnc2[nH]cnc12)c1cc2cccc(Cl)c2c(=O)n1-c1ccccc1 [DUVELISIB],AC50,[2],> 30 µM
same,AC50,[3],> 30 µM
same,AC50,[4],> 30 µM
same,AC50,[5],16.8 µM
same,AC50,[6],> 30 µM
same,AC50,[7],> 30 µM
same,AC50,[8],> 30 µM
CCOC(=O)Nc1ccc(NCc2ccc(F)cc2)nc1N [FLUPIRTINE],AC50,[1],> 30 µM
same,AC50,[9],> 30 µM
same,AC50,[7],> 30 µM
C[C@H](Cn1cnc2c(N)ncnc21)OCP(=O)(O)O [TENOFOVIR ANHYDROUS],AC50,[1],> 30 µM
same,AC50,[9],> 30 µM
same,AC50,[10],> 30 µM
same,AC50,[7],> 30 µM
c1cnc2cc3c(cc2n1)[C@@H]1CNC[C@H]3C1 [VARENICLINE],AC50,[7],> 30 µM
O=C(O)COC(=O)Cc1ccccc1Nc1c(Cl)cccc1Cl [ACECLOFENAC],AC50,[1],> 30 µM
same,AC50,[9],> 10 µM
CC(C)/N=c1\cc2n(-c3ccc(Cl)cc3)c3ccccc3nc-2cc1Nc1ccc(Cl)cc1 [CLOFAZIMINE],AC50,[1],> 30 µM
same,AC50,[9],5 µM
same,AC50,[7],> 30 µM
Cn1cnc2c(F)c(Nc3ccc(Br)cc3F)c(C(=O)NOCCO)cc21 [BINIMETINIB],AC50,[7],> 30 µM
O=C(Cc1cccs1)N[C@@H]1C(=O)N2C(C(=O)[O-])=C(C[n+]3ccccc3)CS[C@H]12 [CEPHALORIDINE],AC50,[2],> 30 µM
same,AC50,[3],> 30 µM
same,AC50,[4],> 30 µM
same,AC50,[5],> 30 µM
same,AC50,[6],> 3 µM
same,AC50,[8],> 30 µM
Nc1c2c(nc3ccccc13)CCCC2O (stereo unspecified) [VELNACRINE],AC50,[7],> 30 µM
Nc1nnc(-c2cccc(Cl)c2Cl)c(N)n1 [LAMOTRIGINE],AC50,[1],> 30 µM
same,AC50,[10],> 10 µM
COc1cc2c(cc1OC)C1CC(=O)C(CC(C)C)CN1CC2 (stereo unspecified) [TETRABENAZINE],AC50,[7],> 30 µM
C#CCN(C)Cc1ccccc1 [PARGYLINE],AC50,[2],> 30 µM
same,AC50,[3],> 30 µM
same,AC50,[4],> 30 µM
same,AC50,[5],> 30 µM
same,AC50,[6],> 30 µM
same,AC50,[8],> 30 µM
C[C@@H](O)[C@H]1C(=O)N2C(C(=O)O)=C(SCCN=CN)C[C@H]12 [IMIPENEM ANHYDROUS],AC50,[7],> 300 µM
CCOc1ccccc1OCCN[C@H](C)Cc1ccc(OC)c(S(N)(=O)=O)c1 [TAMSULOSIN],AC50,[1],> 30 µM
same,AC50,[9],> 10 µM
same,AC50,[10],> 10 µM
CO[C@@H]1[C@@H](OC(N)=O)[C@@H](O)[C@H](Oc2ccc3c(O)c(NC(=O)c4ccc(O)c(CC=C(C)C)c4)c(=O)oc3c2C)OC1(C)C [NOVOBIOCIN],AC50,[7],> 30 µM
OCCOCCN1CCN(C(c2ccccc2)c2ccc(Cl)cc2)CC1 (stereo unspecified) [HYDROXYZINE],AC50,[1],> 30 µM
same,AC50,[9],> 10 µM
same,AC50,[10],> 10 µM
CC(C)NCC(O)COc1ccc(CC(N)=O)cc1 (stereo unspecified) [ATENOLOL],AC50,[1],> 30 µM
same,AC50,[10],26 µM
same,AC50,[7],> 30 µM
